Data from US10626081B2, “Farnesoid X receptor agonists and uses thereof” (Metacrine, Inc., priority 2015, dated 2020).

Molecular target: T1, FXR (Homo sapiens, UniProt Q96RI1)
T1 construct: expressed in transfected cells; host or cells: CV-1 cells
T1 sequence (Q96RI1 1-486): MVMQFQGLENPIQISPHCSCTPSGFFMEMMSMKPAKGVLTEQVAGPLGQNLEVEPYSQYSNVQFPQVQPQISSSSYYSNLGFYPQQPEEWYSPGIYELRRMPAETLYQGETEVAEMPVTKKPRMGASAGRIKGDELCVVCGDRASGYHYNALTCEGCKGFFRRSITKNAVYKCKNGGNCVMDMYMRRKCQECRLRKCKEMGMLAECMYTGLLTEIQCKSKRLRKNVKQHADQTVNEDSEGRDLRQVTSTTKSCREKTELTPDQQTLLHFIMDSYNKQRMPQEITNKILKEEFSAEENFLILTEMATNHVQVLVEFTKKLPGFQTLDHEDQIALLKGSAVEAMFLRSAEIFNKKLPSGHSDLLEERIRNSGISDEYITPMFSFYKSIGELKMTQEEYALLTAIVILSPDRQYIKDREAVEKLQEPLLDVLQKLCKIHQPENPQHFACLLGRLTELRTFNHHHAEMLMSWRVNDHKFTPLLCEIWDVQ
T1 sequence (P19793 1-462 partner): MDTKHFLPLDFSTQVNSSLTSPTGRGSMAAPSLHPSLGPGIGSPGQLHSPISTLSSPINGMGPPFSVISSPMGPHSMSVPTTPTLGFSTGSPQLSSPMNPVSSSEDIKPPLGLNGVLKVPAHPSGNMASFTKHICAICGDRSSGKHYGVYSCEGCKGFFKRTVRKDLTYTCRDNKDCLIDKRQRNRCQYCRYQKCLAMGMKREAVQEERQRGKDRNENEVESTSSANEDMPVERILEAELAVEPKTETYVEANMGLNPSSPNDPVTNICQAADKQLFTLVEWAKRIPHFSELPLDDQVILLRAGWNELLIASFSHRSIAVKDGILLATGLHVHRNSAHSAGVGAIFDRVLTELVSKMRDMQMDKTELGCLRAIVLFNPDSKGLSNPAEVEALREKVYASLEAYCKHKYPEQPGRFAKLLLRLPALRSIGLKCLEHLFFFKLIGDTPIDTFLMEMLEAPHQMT
Test: In Vitro FXR Assay (TK): TK-ECRE-luc reporter in transfected CV-1 cells
Format: cell-based
Conditions: CV-1 cells transfected with hFXR, hRXR, 18 h incubation, luminescence
Procedure, shortened: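 CV-1 cells in charcoal-stripped FBS medium were transiently cotransfected with hFXR, hRXR, TK-ECRE-luc and pCMX-YFP plasmids. After 18 h, compounds serially diluted in DMSO were added for 18 h at 37 °C, 5% CO2, then cells were lysed and luminescence read.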

| EC50 | Structure (SMILES) |
| --- | --- |
| ≤ 1 µM | COC(=O)/C=C/c1cccc(N(Cc2ccc(-c3ccc(N(C)C)cc3)cc2C)C(=O)C2CCCCC2)c1 [compound 54, (E)-Methyl 3-(3-(N-((4′-(dimethylamino)-3-methyl-[1,1′-biphenyl]-4-yl)methyl)cyclohexanecarboxamido)phenyl) acrylate] |
| 1 to 10 µM | COC(=O)/C=C/c1cccc(N(Cc2ccc(-c3ccc4ncsc4c3)cc2)C(=O)C2CCCCC2)c1 [75.9, (E)-Methyl 3-(3-(N-(4-(benzo[d]thiazol-6-yl)benzyl)cyclohexanecarboxamido)phenyl) acrylate] |
| > 10 µM | COC(=O)/C=C/c1cccc(N(Cc2ccc(-c3ccc(CO)cc3)cc2)C(=O)C2CCCCC2)c1 [62.7, (E)-Methyl 3-(3-(N-((4′-(hydroxymethyl)-[1,1′-biphenyl]-4-yl)methyl)cyclohexanecarboxamido)phenyl) acrylate] |
| 1 to 10 µM | COC(=O)/C=C/c1cccc(N(Cc2ccc(-c3ccc(S(C)(=O)=O)cc3)cc2)C(=O)C2CCCCC2)c1 [62.4, (E)-Methyl 3-(3-(N-((4′-(methylsulfonyl)-[1,1′-biphenyl]-4-yl)methyl)cyclohexanecarboxamido)phenyl) acrylate] |
| ≤ 1 µM | COC(=O)/C=C/c1cccc(N(Cc2ccc(-c3ccc(N(C)C)cc3)cc2)C(=O)[C@H]2CC[C@H](C(=O)O)CC2)c1 [13.16, trans-4-(((4′-(Dimethylamino)-[1,1′-biphenyl]-4-yl)methyl)(3-((E)-3-methoxy-3-oxoprop-1-en-1-yl)phenyl)carbamoyl) cyclohexanecarboxylic acid] |
| 1 to 10 µM | COC(=O)/C=C/c1cccc(N(Cc2ccc(-c3ccc(OC)c(C)c3)cc2)C(=O)C2CCN(C(=O)OC(C)(C)C)CC2)c1 [62.5, (E)-tert-Butyl 4-(((4′-methoxy-3′-methyl-[1,1′-biphenyl]-4-yl)methyl)(3-(3-methoxy-3-oxoprop-1-en-1-yl)phenyl)carbamoyl)piperidine-1-carboxylate] |
| ≤ 1 µM | COC(=O)/C=C/c1cccc(N(Cc2ccc(-c3ccc(N(C)C)cc3)cc2)C(=O)[C@H]2CC[C@H](NS(C)(=O)=O)CC2)c1 [98.2, trans-(E)-Methyl 3-(3-(N-((4′-(dimethylamino)-[1,1′-biphenyl]-4-yl)methyl)-4-(methylsulfonamido)cyclohexane-carboxamido)phenyl)acrylate] |
| 1 to 10 µM | COC(=O)/C=C/c1cccc(N(Cc2ccc(-c3ccc(OC)c(C)c3)cc2)C(=O)c2ccncc2)c1 [62.1, (E)-Methyl 3-(3-(N-((4′-methoxy-3′-methyl-[1,1′-biphenyl]-4-yl)methyl)isonicotinamido)phenyl)acrylate] |
| 1 to 10 µM | COC(=O)/C=C/c1cccc(N(Cc2ccc(-c3ccc(N(C)C)cc3)cc2)C(=O)C(C)(C)CO)c1 [13.23, (E)-Methyl 3-(3-(N-((4′-(dimethylamino)-[1,1′-biphenyl]-4-yl)methyl)-3-hydroxy-2,2-dimethylpropanamido)phenyl)acrylate] |
| > 10 µM | COC(=O)/C=C/c1cccc(N(Cc2ccc(-c3ccc4oncc4c3)cc2)C(=O)C2CCCCC2)c1 [75.15, (E)-Methyl 3-(3-(N-(4-(benzo[d]isoxazol-5-yl)benzyl)cyclohexanecarboxamido)phenyl) acrylate] |

Second part, the compound before the results:

| Structure (SMILES) | EC50 |
| --- | --- |
| COC(=O)/C=C/c1cccc(N(Cc2ccc(-c3ccc(N(C)C)cc3)cc2)C(=O)N2CCCCC2)c1 [compound 16] | 1 to 10 µM |
| COC(=O)/C=C/c1cccc(N(Cc2ccc(-c3ccc4sncc4c3)cc2)C(=O)C2CCCCC2)c1 [75.17, (E)-Methyl 3-(3-(N-(4-(benzo[d]isothiazol-5-yl)benzyl)cyclohexanecarboxamido)phenyl) acrylate] | 1 to 10 µM |
| COC(=O)/C=C/c1cccc(N(Cc2ccc(-c3ccc(N(C)C)cc3)cc2)C(=O)C2(C)CCOCC2)c1 [13.6, (E)-Methyl 3-(3-(N-((4′-(dimethylamino)-[1,1′-biphenyl]-4-yl)methyl)-4-methyltetrahydro-2H-pyran-4-carboxamido)phenyl)acrylate] | 1 to 10 µM |
| COC(=O)/C=C/c1cc(Cl)cc(N(Cc2ccc(-c3ccc(N(C)C)cc3)cc2)C(=O)C2CCCCC2)c1 [86.10, (E)-Methyl 3-(3-chloro-5-(N-((4′-(dimethylamino)-[1,1′-biphenyl]-4-yl)methyl)cyclohexanecarboxamido)phenyl) acrylate] | ≤ 1 µM |
| COCCOC(=O)/C=C/c1cccc(N(Cc2ccc(-c3ccc(N(C)C)cc3)cc2)C(=O)C2CCCCC2)c1 [86.3, (E)-2-Methoxyethyl 3-(3-(N-((4′-(dimethylamino)-[1,1′-biphenyl]-4-yl)methyl)cyclohexanecarboxamido)phenyl) acrylate] | 1 to 10 µM |
| COC(=O)/C=C/c1cccc(N(Cc2ccc(-c3ccc(N(C)C)cc3)cc2)C(=O)C2CCCOC2)c1 (stereo not shown) [17.3, (E)-Methyl 3-(3-(N-((4′-(dimethylamino)-[1,1′-biphenyl]-4-yl)methyl)tetrahydro-2H-pyran-3-carboxamido)phenyl)acrylate] | 1 to 10 µM |
| CN(C)c1ccc(-c2ccc(CN(C(=O)C3CCCCC3)c3cccc(/C=C/C(=O)OCC4CCCO4)c3)cc2)cc1 (stereo not shown) [86.5, (E)-(Tetrahydrofuran-2-yl) methyl 3-(3-(N-((4′-(dimethylamino)-[1,1′-biphenyl]-4-yl)methyl)cyclohexanecarboxamido)phenyl) acrylate] | > 10 µM |
| COC(=O)/C=C/c1cccc(N(Cc2ccc(-c3ccc(N(C)C)cc3)cc2)C(=O)C2CN(S(C)(=O)=O)C2)c1 [13.11, (E)-Methyl 3-(3-(N-((4′-(dimethylamino)-[1,1′-biphenyl]-4-yl)methyl)-1-(methylsulfonyl)azetidine-3-carboxamido)phenyl)acrylate] | 1 to 10 µM |

Molecular target: T1, FXR
Test: In Vitro FXR Assay (PGL3): luciferase reporter in transfected CV-1 cells
Format: cell-based
Conditions: CV-1 cells transfected with hFXR, hRXR, PGL3-ECRE*6-luc; 18 h incubation; luminescence
Method: Example B-1: In Vitro FXR Assay (PGL3)
CV-1 cells were seeded at a density of 2,000,000 cells in a T175 flask with DMEM+10% charcoal double-stripped FBS and incubated at 37° C. in a 5% CO2 for 18 h (O/N).
After 18 h of incubation, the medium in the T175 flask was changed with fresh DMEM+10% charcoal super-stripped serum.
To prepare the transfection reaction mixture, the transfection reagent (X-tremeGENE HP from Roche, Cat #06 366 236 001) was added in to a 1.5 mL microcentrifuge tube labelled “A” at a ratio of 1:3 (DNA in transfection reagent in μL). OptiMEM medium (Life Technologies, Cat #31985-062) was added accordingly to provide a total volume of 1 mL. The transfection reaction mixture was then briefly vortexed and incubated at room temperature for 5 minutes.
In a separate 1.5 mL microcentrifuge tube labelled “B”, 100 μL OptiMEM and plasmids XPD90Gal pCMXhFXRfl, pCMXhRXRfl+PGL3-ECRE*6-luc+CMX-YFP in the ratio 2 μg:2 μg:18 μg:3 μg were added. This microcentrifuge tube “B” was then briefly vortexed and incubated at room temperature for 5 minutes.
The total volume in tube labelled “A” was then transferred in to tube labelled “B.” The mixture was then briefly vortexed and the transfection:DNA complex was then incubated for about 15-20 minutes at room temperature.
Following incubation, the transfection reagent/DNA mixture complex was then added to cells in the T175 flask and the cells were incubated at […] (O/N) at 37° C. in 5% CO2.
In a 96 well plate, a half logarithmic serial dilution was prepared. OptiMEM was used as the diluent. Using any of one of the compounds described herein, a compound stock solution of 10 mM was prepared. An initial 1:100 dilution was made into the first well for a final concentration of 100 μM. The final concentrations in the 96-well plate was prepared by using a multichannel pipette to transfer 5 μL of the diluted compound to 384-well plate in quadruplicate.
Cells in T175 flask were trypsinized and cells were resuspended in 40 mL phenol red free DMEM+10% charcoal super-stripped FBS. Typically, one T175 flask was sufficient to seed two 384 well plates. CV-1 cells were seeded at 45 μL cell suspension/well using a multi-channel pipet or a 384 multidrop dispenser. The cells were then incubated for 18 hrs, overnight.
After removing the plates from the incubator, the medium was flicked out of plate and 384 well plate was turned upside down onto paper towel. The remaining medium was gently tapped out. 15 μL lysis buffer was then added to each well using a multichannel pipet or a 384 well multi-drop dispenser. After incubation for 10 minutes at room temperature on shaker, 30 μL Luciferase buffer was added to each well. Luminescence counts were taken immediately using the Perkin Elmer Envision.
The ability of the compounds disclosed herein to […] FXR activity was quantified and the respective EC50 value was determined. Fex=fexaramine.

| Cmpd/Fex (ratio of the EC50 for the test compound relative to the EC50 of the Fexaramine control) | Structure (SMILES) |
| --- | --- |
| +++ (‘+++’ means Cmpd/Fex < 10) | COC(=O)/C=C/c1cccc(N(Cc2ccc(-c3ccc(N(C)C)cc3)cc2C)C(=O)C2CCCCC2)c1 [compound 54, (E)-Methyl 3-(3-(N-((4′-(dimethylamino)-3-methyl-[1,1′-biphenyl]-4-yl)methyl)cyclohexanecarboxamido)phenyl) acrylate] |
| + (‘+’ means Cmpd/Fex > 100) | COC(=O)/C=C/c1cccc(N(Cc2ccc(N3CCN(C)CC3)cc2)C(=O)C2CCCCC2)c1 [compound 76, (E)-Methyl 3-(3-(N-(4-(4-methylpiperazin-1-yl)benzyl)cyclohexanecarboxamido)phenyl) acrylate] |

The next lines start with the compound.

| Structure (SMILES) | Cmpd/Fex (ratio of the EC50 for the test compound relative to the EC50 of the Fexaramine control) |
| --- | --- |
| COC(=O)/C=C/c1cccc(N(Cc2ccc(-c3ccc(N(C)C)cc3)cc2)C(=O)N2CCCCC2)c1 [compound 16] | ++ (‘++’ means Cmpd/Fex > 10 & < 100) |
| COC(=O)/C=C/c1cccc(N(Cc2ccc(N3CCNCC3)cc2)C(=O)C2CCCCC2)c1 [compound 79, (E)-Methyl 3-(3-(N-(4-(piperazin-1-yl)benzyl)cyclohexanecarboxamido)phenyl) acrylate] | + (‘+’ means Cmpd/Fex > 100) |
